Source: US20230340011A1 (Asteroid Therapeutics, priority 2022, published 2023)

Assays:
SREBP-2 = SREBP-2 (Homo sapiens (Human), UniProt Q12772); assay: In vitro assay SREBP-2: PathHunter U2OS SREBP-2 Nuclear Translocation Cell Line, U18666A-stimulated; format: cell-based; conditions: PathHunter U2OS SREBP-2 nuclear translocation cells, U18666A 10 μM, overnight (16 hours)
LXRβ = LXRβ (Homo sapiens (Human), UniProt P55055); assay: In vitro assay LXRβ: PathHunter NHR CHO cells, LXRβ / Steroid Receptor Co-activator Peptide enzyme fragment complementation; format: cell-based; conditions: PathHunter NHR CHO cells, full-length human LXRβ and SRCP, chemiluminescent signal; read-out: LXRβ PPI
Method in brief: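 Enzyme fragment complementation read-out: CHO cells stably expressing ProLink-tagged full-length human LXRβ plus nuclear enzyme acceptor–SRCP fusion, seeded and held overnight at 37° C. Medium with charcoal-dextran filtered serum; final vehicle 1%. Chemiluminescence measured after signal generation.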

Chain of LXRβ (P55055 whole entry, the tested form may be a part): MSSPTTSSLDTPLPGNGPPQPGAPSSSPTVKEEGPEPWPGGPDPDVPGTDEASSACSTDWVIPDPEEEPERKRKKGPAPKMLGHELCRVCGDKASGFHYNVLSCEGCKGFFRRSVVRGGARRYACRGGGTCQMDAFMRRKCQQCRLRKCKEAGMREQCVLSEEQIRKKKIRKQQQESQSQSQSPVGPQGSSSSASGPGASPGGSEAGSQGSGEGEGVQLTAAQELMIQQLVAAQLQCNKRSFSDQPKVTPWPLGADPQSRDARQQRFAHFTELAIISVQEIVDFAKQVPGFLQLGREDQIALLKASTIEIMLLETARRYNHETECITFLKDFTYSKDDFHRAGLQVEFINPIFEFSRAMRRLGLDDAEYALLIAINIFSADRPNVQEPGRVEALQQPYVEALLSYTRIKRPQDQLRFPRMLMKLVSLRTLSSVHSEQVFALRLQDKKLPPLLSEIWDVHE

In the case of C#CC1(OC(C)C)CCN(C(=O)CC[C@@H](C)[C@H]2CC[C@H]3[C@@H]4CC=C5C[C@@H](O)CC[C@]5(C)[C@H]4CC[C@]23C)CC1 [Example 329, [(1R,3aS,3bS,7S,9aR,9bS,11aR)-7-hydroxy-9a,11a-dimethyl-1H,2H,3H,3aH,3bH,4H,6H,7H,8H,9H,9aH,9bH,10H,11H,11aH-cyclopenta[a]phenanthren-1-yl]-1-[4-ethynyl-4-(propan-2-yloxy)piperidin-1-yl]pentan-1-one], the IC50 (SREBP-2) is reported as less than 250 nM and the EC50 (LXRβ) is reported as 1000 to 10000 nM.

C[C@H](CCc1cccnn1)[C@H]1CC[C@H]2[C@@H]3CC=C4C[C@@H](O)CC[C@]4(C)[C@H]3CC[C@]12C [Example 134, (1R,3aS,3bS,7S,9aR,9bS,11aR)-9a,11a-dimethyl-1-[(2R)-4-(pyridazin-3-yl)butan-2-yl]-1H,2H,3H,3aH,3bH,4H,6H,7H,8H,9H,9aH,9bH,10H,11H,11aH-cyclopenta[a]phenanthren-7-ol] was tested, and the IC50 (SREBP-2) was greater than 10000 nM and the EC50 (LXRβ) was 250 to 1000 nM.

Compound COc1ccccc1N1CCN(C(=O)CC[C@@H](C)[C@H]2CC[C@H]3[C@@H]4CC=C5C[C@@H](O)CC[C@]5(C)[C@H]4CC[C@]23C)CC1 [Example 624, (R)-4-((3S,8S,9S,10R,13R,14S,17R)-3-hydroxy-10,13-dimethyl-2,3,4,7,8,9,10,11,12,13,14,15,16,17-tetradecahydro-1H-cyclopenta[a]phenanthren-17-yl)-1-(4-(2-methoxyphenyl)piperazin-1-yl)pentan-1-one] has an IC50 (SREBP-2) of less than 250 nM and an EC50 (LXRβ) greater than 10000 nM.

In the case of C[C@H](CCc1ncccn1)[C@H]1CC[C@H]2[C@@H]3CC=C4C[C@@H](O)CC[C@]4(C)[C@H]3CC[C@]12C [Example 133, (1R,3aS,3bS,7S,9aR,9bS,11aR)-9a,11a-dimethyl-1-[(2R)-4-(pyrimidin-2-yl)butan-2-yl]-1H,2H,3H,3aH,3bH,4H,6H,7H,8H,9H,9aH,9bH,10H,11H,11aH-cyclopenta[a]phenanthren-7-ol], the IC50 (SREBP-2) is reported as 250 to 1000 nM and the EC50 (LXRβ) is reported as 250 to 1000 nM.

CC(=O)NC1CCN(C(=O)CC[C@@H](C)[C@H]2CC[C@H]3[C@@H]4CC=C5C[C@@H](O)CC[C@]5(C)[C@H]4CC[C@]23C)CC1 [Example 320, N-(1-((R)-4-((3S,8S,9S,10R,13R,14S,17R)-3-hydroxy-10,13-dimethyl-2,3,4,7,8,9,10,11,12,13,14,15,16,17-tetradecahydro-1H-cyclopenta[a]phenanthren-17-yl)pentanoyl)piperidin-4-yl)acetamide] was tested, and the IC50 (SREBP-2) was less than 250 nM and the EC50 (LXRβ) was greater than 10000 nM.

Compound COC(=O)N1CCC2(CCN(C(=O)CC[C@@H](C)[C@H]3CC[C@H]4[C@@H]5CC=C6C[C@@H](O)CC[C@]6(C)[C@H]5CC[C@]34C)C2)C1 (stereo partly drawn) [Example 554, Methyl 7-((R)-4-((3S,8S,9S,10R,13R,14S,17R)-3-hydroxy-10,13-dimethyl-2,3,4,7,8,9,10,11,12,13,14,15,16,17-tetradecahydro-1H-cyclopenta[a]phenanthren-17-yl)pentanoyl)-2,7-diazaspiro[4.4]nonane-2-carboxylate] has an IC50 (SREBP-2) of less than 250 nM and an EC50 (LXRβ) greater than 10000 nM.

C[C@H](CCC(=O)N1CCN(C(=O)N2CCC2)CC1)[C@H]1CC[C@H]2[C@@H]3CC=C4C[C@@H](O)CC[C@]4(C)[C@H]3CC[C@]12C [Example 208, (R)-1-(4-(azetidine-1-carbonyl)piperazin-1-yl)-4-((3S,8S,9S,10R,13R,14S,17R)-3-hydroxy-10,13-dimethyl-2,3,4,7,8,9,10,11,12,13,14,15,16,17-tetradecahydro-1H-cyclopenta[a]phenanthren-17-yl)pentan-1-one] showed an IC50 (SREBP-2) of less than 250 nM and an EC50 (LXRβ) greater than 10000 nM.

With C[C@H](CCC(=O)N1CCC[C@H](c2ccccc2)C1)[C@H]1CC[C@H]2[C@@H]3CC=C4C[C@@H](O)CC[C@]4(C)[C@H]3CC[C@]12C [Example 77, (R)-4-((3S,8S,9S,10R,13R,14S,17R)-3-hydroxy-10,13-dimethyl-2,3,4,7,8,9,10,11,12,13,14,15,16,17-tetradecahydro-1H-cyclopenta[a]phenanthren-17-yl)-1-((R)-3-phenylpiperidin-1-yl) pentan-1-one] the IC50 (SREBP-2) was less than 250 nM and the EC50 (LXRβ) was 1000 to 10000 nM.

C[C@H](CCC(=O)N1CCN(C(=O)c2ccccn2)CC1)[C@H]1CC[C@H]2[C@@H]3CC=C4C[C@@H](O)CC[C@]4(C)[C@H]3CC[C@]12C [Example 335, (4R)-4-[(1R,3aS,3bS,7S,9aR,9bS,11aR)-7-hydroxy-9a,11a-dimethyl-1H,2H,3H,3aH,3bH,4H,6H,7H,8H,9H,9aH,9bH,10H,11H,11aH-cyclopenta[a]phenanthren-1-yl]-1-[4-(pyridine-2-carbonyl)piperazin-1-yl]pentan-1-one] gave an IC50 (SREBP-2) of less than 250 nM and an EC50 (LXRβ) greater than 10000 nM.

Work on CC1CCN(C(=O)CC[C@@H](C)[C@H]2CC[C@H]3[C@@H]4C[C@@H](O)[C@H]5C[C@@H](O)CC[C@]5(C)[C@H]4CC[C@]23C)CC1 [Example C2, (R)-4-((3S,5S,6R,8S,9S,10R,13R,14S,17R)-3,6-dihydroxy-10,13-dimethylhexadecahydro-1H-cyclopenta[a]phenanthren-17-yl)-1-(4-methylpiperidin-1-yl)pentan-1-one] yielded an IC50 (SREBP-2) greater than 10000 nM and an EC50 (LXRβ) greater than 10000 nM.

With C[C@H](CCC(=O)N1CCN(C(=O)C2CC2)C[C@@H]1C)[C@H]1CC[C@H]2[C@@H]3CC=C4C[C@@H](O)CC[C@]4(C)[C@H]3CC[C@]12C [Example 651, (R)-1-((S)-4-(cyclopropanecarbonyl)-2-methylpiperazin-1-yl)-4-((3S,8S,9S,10R,13R,14S,17R)-3-hydroxy-10,13-dimethyl-2,3,4,7,8,9,10,11,12,13,14,15,16,17-tetradecahydro-1H-cyclopenta[a]phenanthren-17-yl)pentan-1-one] the IC50 (SREBP-2) was less than 250 nM and the EC50 (LXRβ) was greater than 10000 nM.

C[C@H](CCc1ncccc1OCCO)[C@H]1CC[C@H]2[C@@H]3CC=C4C[C@@H](O)CC[C@]4(C)[C@H]3CC[C@]12C [Example 246] gave an IC50 (SREBP-2) of less than 250 nM and an EC50 (LXRβ) of 250 to 1000 nM.

For CON(C(=O)CC[C@@H](C)[C@H]1CC[C@H]2[C@@H]3CC=C4C[C@@H](O)CC[C@]4(C)[C@H]3CC[C@]12C)[C@@H](C)CO [Example 72, (R)-4-((3S,8S,9S,10R,13R,14S,17R)-3-hydroxy-10,13-dimethyl-2,3,4,7,8,9,10,11,12,13,14,15,16,17-tetradecahydro-1H-cyclopenta[a]phenanthren-17-yl)-N—((S)-1-hydroxypropan-2-yl)-N-methoxypentanamide], the IC50 (SREBP-2) was 250 to 1000 nM and the EC50 (LXRβ) was 250 to 1000 nM.

Compound C[C@H](C(=O)NCc1ccncc1)[C@H]1CC[C@H]2[C@@H]3CC=C4C[C@@H](O)CC[C@]4(C)[C@H]3CC[C@]12C [Example 599, (S)-2-((3S,8S,9S,10R,13S,14S,17R)-3-hydroxy-10,13-dimethyl-2,3,4,7,8,9,10,11,12,13,14,15,16,17-tetradecahydro-1H-cyclopenta[a]phenanthren-17-yl)-N-(pyridin-4-ylmethyl)propanamide] has an IC50 (SREBP-2) of 1000 to 10000 nM and an EC50 (LXRβ) greater than 10000 nM.

With C[C@@H](CCC(=O)N[C@H]1CC[C@@H](C(=O)N(C)C)CC1)[C@H]1CC[C@H]2[C@@H]3CC=C4C[C@@H](O)CC[C@]4(C)[C@H]3CC[C@]12C [Example 641, (1S,4s)-4-((R)-4-((3S,8S,9S,10R,13R,14S,17R)-3-hydroxy-10,13-dimethyl-2,3,4,7,8,9,10,11,12,13,14,15,16,17-tetradecahydro-1H-cyclopenta[a]phenanthren-17-yl)pentanamido)-N,N-dimethylcyclohexane-1-carboxamide] the IC50 (SREBP-2) was less than 250 nM and the EC50 (LXRβ) was greater than 10000 nM.

C[C@H](CCC(=O)N1CCN(C(=O)N2CCC[C@@H]2C)CC1)[C@H]1CC[C@H]2[C@@H]3CC=C4C[C@@H](O)CC[C@]4(C)[C@H]3CC[C@]12C [Example 666, (R)-4-((3S,8S,9S,10R,13R,14S,17R)-3-hydroxy-10,13-dimethyl-2,3,4,7,8,9,10,11,12,13,14,15,16,17-tetradecahydro-1H-cyclopenta[a]phenanthren-17-yl)-1-(4-((S)-2-methylpyrrolidine-1-carbonyl)piperazin-1-yl)pentan-1-one] showed an IC50 (SREBP-2) of less than 250 nM and an EC50 (LXRβ) greater than 10000 nM.

Cc1noc(N2CCN(C(=O)CC[C@@H](C)[C@H]3CC[C@H]4[C@@H]5CC=C6C[C@@H](O)CC[C@]6(C)[C@H]5CC[C@]34C)CC2)n1 [Example 495, (R)-4-((3S,8S,9S,10R,13R,14S,17R)-3-hydroxy-10,13-dimethyl-2,3,4,7,8,9,10,11,12,13,14,15,16,17-tetradecahydro-1H-cyclopenta[a]phenanthren-17-yl)-1-(4-(3-methyl-1,2,4-oxadiazol-5-yl)piperazin-1-yl)pentan-1-one] showed an IC50 (SREBP-2) of less than 250 nM and an EC50 (LXRβ) greater than 10000 nM.

For CCc1cccnc1CC[C@@H](C)[C@H]1CC[C@H]2[C@@H]3CC=C4C[C@@H](O)CC[C@]4(C)[C@H]3CC[C@]12C [Example 187, (3S,8S,9S,10R,13R,14S,17R)-17-((R)-4-(3-ethylpyridin-2-yl)butan-2-yl)-10,13-dimethyl-2,3,4,7,8,9,10,11,12,13,14,15,16,17-tetradecahydro-1H-cyclopenta[a]phenanthren-3-ol], the IC50 (SREBP-2) was less than 250 nM and the EC50 (LXRβ) was 250 to 1000 nM.

Work on C[C@H](CCC(=O)N1CCN(C(=O)C(C)(C)O)CC1)[C@H]1CC[C@H]2[C@@H]3CC=C4C[C@@H](O)CC[C@]4(C)[C@H]3CC[C@]12C [Example 336, (R)-4-((3S,8S,9S,10R,13R,14S,17R)-3-hydroxy-10,13-dimethyl-2,3,4,7,8,9,10,11,12,13,14,15,16,17-tetradecahydro-1H-cyclopenta[a]phenanthren-17-yl)-1-(4-(2-hydroxy-2-methylpropanoyl)piperazin-1-yl)pentan-1-one] yielded an IC50 (SREBP-2) of less than 250 nM and an EC50 (LXRβ) greater than 10000 nM.
